Test results as given in article PMC11100219, “Dual-function antimicrobial-antibiofilm peptide hybrid to tackle biofilm-forming Staphylococcus epidermidis” (Annals of Clinical Microbiology and Antimicrobials, 2024).
Values after ≈ are worked out from the molar mass of the structure shown. Residues, ends and D or L forms follow the SMILES beside them.

Tests used:
[1] = tested on: Acinetobacter baumanii MT strain; assay: Broth microdilution MIC / MBC; format: cell-based; details: 24 h, 37°C
Experimental: (§1) The minimal inhibitory concentrations (MICs) of peptide derivatives versus planktonic bacteria were assessed using a modification of the broth microdilution assay previously described in the National Committee for Clinical Laboratory Standards (NCCLS). In brief, bacteria at mid-logarithmic growth were collected by centrifugation at 2,500 × g for 5 min. Subsequently, the pellet was resuspended and adjusted in Mueller-Hinton Broth (MHB; BD Bacto™, USA) to an OD620 of 0.05. Fifty µL of bacterial suspensions was transferred to 96-well microplates. Later, 50 µL of peptide derivatives at 0.98–250 µg/mL in 10 mM PBS, was added to wells and incubated for 24 h at 37°C with continuous shaking at 220 rpm. […] The experiments were done in three technical replicates and repeated independently.
(§2) To determine minimal bactericidal concentrations (MBCs) of the peptides, 50 µL of supernatant from non-turbid wells was plated on TSA, and the number of colony-forming units (CFUs) was observed after 24 h of incubation at 37°C. MBC was defined as the minimum concentration of peptide at which no bacterial colony was observed on the plate.

[2] = tested on: Bacillus cereus ATCC 11778; assay: Broth microdilution MIC / MBC; format: cell-based; details: 24 h, 37°C
Experimental: as §1, §2

[3] = tested on: Escherichia coli ATCC 25922; assay: Broth microdilution MIC / MBC; format: cell-based; details: 24 h, 37°C
Experimental: as §1, §2

[4] = tested on: Listeria monocytogenes 10403s; assay: Broth microdilution MIC / MBC; format: cell-based; details: 24 h, 37°C
Experimental: as §1, §2

[5] = tested on: Pseudomonas aeruginosa ATCC 27853; assay: Broth microdilution MIC / MBC; format: cell-based; details: 24 h, 37°C
Experimental: as §1, §2

[6] = tested on: Salmonella Typhimurium ATCC 13311; assay: Broth microdilution MIC / MBC; format: cell-based; details: 24 h, 37°C
Experimental: as §1, §2

[7] = tested on: Staphylococcus aureus ATCC 25923; assay: Broth microdilution MIC / MBC; format: cell-based; details: 24 h, 37°C
Experimental: as §1, §2

[8] = tested on: Staphylococcus epidermidis ATCC 35984; assay: Broth microdilution MIC / MBC; format: cell-based; details: plating of non-turbid wells on TSA, 24 h, 37°C
Experimental: as §1, §2

[9] = tested on: all gram-positive bacterial strains; assay: Mean MIC and therapeutic index, gram-positive strains; format: cell-based; details: four gram-positive strains
Experimental: as §1
The therapeutic index (TI) is widely used for evaluating a peptide’s efficacy and safety. It is the ratio between the minimum hemolytic concentration (MHC, the concentration causing 10% hemolysis) and the geometric mean (GM) value of the MIC [15]. […] While, both lysine-substituted peptides (BiF2_7K and BiF2_5K7K) had higher TIs against all tested biofilm-forming bacteria than did the two parent peptides, and the TI of BiF2_5K7K was higher than that of BiF2_7K.

[10] = tested on: S. epidermidis biofilm cells; assay: Biofilm cell viability, MTT assay; format: cell-based, Staphylococcus epidermidis; details: 24 h
Experimental: The biofilm cell viability after treated with hybrid peptide BiF2_5K7K was examined by 3-(4,5-Dimethylthiazol-2-yl)-2,5-Diphenyltetrazolium bromide or MTT colorimetric assays. Bacterial suspensions (10^6 CFU/mL in TSB) and peptide at concentration ranging from 0.98 to 250 µg/mL in 10 mM PBS were incubated in 96-well microtiter plates at 37°C for 24 h. After incubation, supernatant was discarded, followed by the addition of 0.4 mg/mL MTT (Sigma-Aldrich, USA) in 10 mM PBS to each well and incubated for 3 h at 37°C. Subsequently, supernatant was removed and dimethyl sulfoxide (DMSO; Fisher BioReagents™, UK) was added to dissolve the formed formazan crystals in wells. At a wavelength of 570 nm, the optical densities of the solutions were then determined by microplate reader.

[11] = tested on: S. epidermidis biofilm matrix; assay: Confocal laser scanning microscopy of biofilm formation (AAA model); format: cell-based, Staphylococcus epidermidis; details: at MBIC50 (7.81 µg/mL), 24 h; p-value < 0.001
Experimental: An Amsterdam active attachment (AAA) model was used to assess the effectiveness of BiF2_5K7K to inhibit biofilm formation as previously described. In a 24-well microplate, various concentrations of BiF2_5K7K were incubated overnight with 10^7 CFU/mL of S. epidermidis. The plate was then covered with a sanitary stainless-steel lid containing double-glass coverslips. Following 24 h of incubation at 37°C, the biofilms were washed, and then […] green Alexa-ConA (Sigma-Aldrich, USA) was applied for 30 min to stain the biofilms. After staining, biofilms were fixed for 3 h with 2.5% glutaraldehyde. Biofilm images were acquired using a confocal laser scanning microscope (CLSM; Carl-Zeiss/LSM800, Zeiss, Germany). The fluorescence intensity of each test was analysed using ZEN 2.1 (blue edition) software.

[12] = tested on: preformed S. epidermidis biofilm; assay: Biofilm eradication activity (peg lid, colony counting); format: cell-based, Staphylococcus epidermidis; details: 24 h treatment
Experimental: The eradication capacity of BiF2_5K7K against preformed biofilm was examined as previously described with some modifications. In brief, suspensions of S. epidermidis with a final density of 10^6 CFU/mL were added to 96-well microplates, then covered with 96-peg lids (Nunc™ Immuno TSP Lids, Denmark). Following 24 h of incubation at 37°C, the peg lids were washed with 0.85% NaCl to remove culture media and non-adherent cells. Afterwards, the biofilms adherent to peg lids were incubated at 37°C for 24 h with different concentrations of peptide derivatives. The peg lids were subsequently washed and placed on new plates containing PBS. The biofilms on the lid were removed using a water bath sonicator (Bandelin SONOREX™, Germany). Biofilms were subsequently diluted and then placed on TSA. Minimum biofilm eradication concentrations at 50% and 90% (MBEC50 and MBEC90) refer to the concentration of the peptide at which established biofilm was eradicated by at least 50% and 90%, respectively.

[13] = tested on: mature S. epidermidis biofilm; assay: Confocal laser scanning microscopy of mature biofilm; format: cell-based, Staphylococcus epidermidis
Experimental: The effect of BiF2_5K7K against mature biofilm was also investigated. In short, overnight cultures of S. epidermidis were diluted to 10^7 CFU/mL with TSB and further incubated at 37°C for 24 h to form biofilms. Next, wells were rinsed with sterile water and mature biofilms was treated with BiF2_5K7K at concentration of MBEC50 and further incubated for 24 h. Subsequently, biofilms were washed again, then stained with green Alexa-ConA and LIVE/DEADTM BacLight™ Bacterial Viability Kit (Invitrogen™, Thermo Fisher, USA) for 15 min. After staining, 2.5% glutaraldehyde was used to fixed biofilms, then observed under CLSM as described above.

[14] = broth microdilution, MHB, 0.98-250 µg/mL, visible inspection
[15] = plating of non-turbid wells on TSA

CC[C@H](C)[C@H](NC(=O)[C@H](CCCCN)NC(=O)[C@H](CCCCN)NC(=O)[C@@H](NC(=O)[C@H](CC(C)C)NC(=O)[C@@H](N)Cc1ccccc1)C(C)C)C(=O)N[C@@H](CCCCN)C(=O)N[C@@H](CCCCN)C(=O)N[C@H](C(=O)N[C@@H](CC(C)C)C(=O)N[C@@H](CCCNC(=N)N)C(=O)N[C@@H](CCCNC(=N)N)C(N)=O)[C@@H](C)CC [BiF2_5K7K] (H-FLVKKIKKILRR-NH2; N-terminus assumed)
MIC [1, 14]: 31.2 µg/mL (≈ 20.3 µM) | MBC [1, 15]: 31.2 µg/mL (≈ 20.3 µM) | MIC [2, 14]: 250 µg/mL (≈ 162 µM) | MBC [2, 15]: 250 µg/mL (≈ 162 µM) | MIC [3, 14]: 250 µg/mL (≈ 162 µM) | MBC [3, 15]: 250 µg/mL (≈ 162 µM) | MIC [4, 14]: 31.25 µg/mL (≈ 20.3 µM) | MBC [4, 15]: 62.5 µg/mL (≈ 40.6 µM) | MIC [5, 14]: 62.5 µg/mL (≈ 40.6 µM) | MBC [5, 15]: 125 µg/mL (≈ 81.1 µM) | MIC [6, 14]: 31.25 µg/mL (≈ 20.3 µM) | MBC [6, 15]: 62.5 µg/mL (≈ 40.6 µM) | MIC [7, 14]: > 250 µg/mL | MBC [7, 15]: > 250 µg/mL | MBC [8]: 31.25 µg/mL (≈ 20.3 µM) | GM +, geometric mean of MIC values from all gram-positive bacterial strains [9]: 199.22 µg/mL | viability of biofilm cells ([10]; at MIC (15.63 µg/mL)): remained viable | viability of biofilm cells ([10]; at higher concentrations (>15.63 µg/mL)): no growth of biofilm cells | fluorescence intensity of Alexa Fluor 488 stained biofilm vs untreated control [11]: significantly lower | MBEC50 ([12]; 24 h preformed biofilm on peg lids, 37°C): 31.25 µg/mL | MBEC90 ([12]; more than 90% of mature biofilm eradicated): 125 µg/mL | fluorescence intensity ratio (live to dead cells), treated vs untreated ([13]; at MBEC50, 24 h, p-value < 0.01): significant difference | mature biofilm matrix (Alexa-ConA fluorescence intensity) ([13]; at MBEC50, 24 h treatment): significant decrease
